According to patent US20240142676A1, “COMPOUND, COMPOSITION, CURED PRODUCT, OPTICALLY ANISOTROPIC BODY, OPTICAL ELEMENT, AND LIGHT GUIDE ELEMENT” (FUJIFILM Corporation, priority 2021, published 2024):

Experiments:
Assay type in all cases: physicochemical
[1] = Evaluation of liquid crystallinity (hot stage, polarization microscope); parameters: key: A case of having liquid crystallinity was evaluated as A; a case of having no liquid crystallinity was evaluated as B; settings: heated on a hot stage, observed with a polarization microscope
Method: The respective compounds (the compounds A-1 to A-6 and the compounds B-1 and B-2) were heated on a hot stage and observed with a polarization microscope, and the phase transition temperature was measured to evaluate the presence or absence of the liquid crystallinity. A case of having liquid crystallinity was evaluated as A, and a case of having no liquid crystallinity was evaluated as B. The results are shown in Table 1.
Since B-1 has melting points of 200° C. or higher and undergo a polymerization reaction during heating, liquid crystallinity could not be evaluated.

[2] = Evaluation of solubility in methyl ethyl ketone; settings: precipitation concentration in methyl ethyl ketone at room temperature (25° C.)
Method: The solubility of each of the compounds (the compounds A-1 to A-6 and the compounds B-1 and B-2) in methyl ethyl ketone was evaluated.

[3] = Measurement of Δn (refractive index anisotropy), wedge-shaped liquid crystal cell; settings: wavelength 550 nm, 30° C. or lower limit temperature of nematic phase+0° C. to 10° C.; extrapolated from 1/2 mixture with L-1-1 where needed
Method: The Δn of each of the compounds (the compounds A-1 to A-6 and the compounds B-1 and B-2), which are the compounds to be measured, was measured by a method using a wedge-shaped liquid crystal cell described on page 202 in the Liquid crystal handbook (edited by the liquid crystal handbook editorial board, published by Maruzen Co., Ltd., 2000). Δn was defined as a measured value at a wavelength of 550 nm at 30° C. or the lower limit temperature of the nematic phase+0° C. to 10° C. In a case of a compound which is liable to crystallize or a compound having no liquid crystallinity, evaluation was carried out using a mixture thereof with the other liquid crystal compound, and Δn was estimated from the extrapolated value of the measured value thereof.
The following L-1-1 was used as the other liquid crystal compound. As the above mixture, a mixture obtained by mixing at a ratio of the compound to be measured/the L-1-1=1/2 (in terms of mass ratio) was used.
A case where Δn was 0.35 or more was evaluated as A, a case where Δn was 0.30 or more and less than 0.35 was evaluated as B, and a case where Δn was less than 0.30 was evaluated as C.

[4] = Light resistance evaluation of optically anisotropic layer (Super Xenon Weather Meter); settings: rate of change in Re (550 nm) of layer with 25 parts compound/75 parts L-1; 5 million lx, 50 hours, 63° C., 50% RH, oxygen-blocking
Method: As shown below, the light resistance of the optically anisotropic layer produced using the composition containing each of the compounds A-1 to A-6 and the compounds B-1 and B-2 was evaluated.
A coating liquid having the following composition was prepared and applied by spin-coating, onto a rubbing-treated glass attached with an alignment film. Each composition was irradiated with ultraviolet rays of 300 mJ/cm^2 through a filter that cuts light having a wavelength of 350 nm or less on a hot plate which had been heated to a temperature at which a nematic phase is shown, whereby an optically anisotropic layer was produced.
The polymerizable liquid crystal compound L-1 is a mixture obtained by mixing at a ratio of the following L-1-1/L-1-2/L-1-3=84/14/2 (in terms of mass ratio).
The produced optically anisotropic layers for a light resistance test were irradiated with light using a Super Xenon Weather Meter SX75 manufactured by Suga Test Instruments Co., Ltd. Using KU-1000100 manufactured by King Seisakusho Co., Ltd. as a UV cut filter, a light resistance test was carried out by irradiation with 5 million lx of light for 50 hours under an oxygen-blocking condition. The temperature of the specimen to be tested (the temperature inside the test device) was set to 63° C. The relative humidity in the test device was 50% RH.
The Re of the optically anisotropic layer before and after the light resistance test was measured, the light resistance in a case where the rate of change in Re described below was less than 10% was evaluated as A, and the light resistance in a case where the rate of change in Re was 10% or more was evaluated as B. The smaller the rate of change in Re, the more excellent the light resistance.
Rate of change in Re (%)=[100×{|(Re after test)−(Re before test)|}/(Re before test)]
Re was measured with Axoscan manufactured by Axometrics Inc. at a wavelength of 550 nm, and the measurement temperature was set to room temperature.

Liquid crystallinity [1]	SMILES	Solubility [2]	Δn [3]	Light resistance [4]
A	C=CC(=O)OCCCCOc1ccc(C#Cc2ccc(-c3ccc(C#Cc4ccc(OCCCCOC(=O)C=C)cc4)cc3C)c(C)c2)cc1 [Compound A-3]	A (the solubility in a case where the precipitation concentration was 10% by mass or more was evaluated as A)	B (a case where Δn was 0.30 or more and less than 0.35 was evaluated as B)	A (the light resistance in a case where the rate of change in Re described below was less than 10% was evaluated as A)
A	C=CC(=O)OCCc1ccc(C#Cc2cnc(-c3ncc(C#Cc4ccc(CCOC(=O)C=C)cc4)cc3C)c(C)c2)cc1 [Compound A-6]	A (the solubility in a case where the precipitation concentration was 10% by mass or more was evaluated as A)	B (a case where Δn was 0.30 or more and less than 0.35 was evaluated as B)	A (the light resistance in a case where the rate of change in Re described below was less than 10% was evaluated as A)
A	C=CC(=O)OCCc1ccc(C#Cc2ccc(-c3ccc(C#Cc4ccc(CCOC(=O)C=C)cc4)cc3C)c(C)c2)cc1 [Compound A-1]	A (the solubility in a case where the precipitation concentration was 10% by mass or more was evaluated as A)	B (a case where Δn was 0.30 or more and less than 0.35 was evaluated as B)	A (the light resistance in a case where the rate of change in Re described below was less than 10% was evaluated as A)
A	C=CC(=O)OCCSc1ccc(C#Cc2ccc(-c3ccc(C#Cc4ccc(SCCOC(=O)C=C)cc4)cc3C)c(C)c2)cc1 [Compound A-2]	A (the solubility in a case where the precipitation concentration was 10% by mass or more was evaluated as A)	A (A case where Δn was 0.35 or more was evaluated as A)	A (the light resistance in a case where the rate of change in Re described below was less than 10% was evaluated as A)
